The values that follow come from DBAASP.

What all share (assay): ≥ marks a high value that may be exact or a test limit, other limits are often not marked, values filed in µg/mL are converted to µM
Assay [1] concerns Escherichia coli 55B5.
Assay [2] deals with Pseudomonas aeruginosa.
Assay [3] relates to Salmonella typhimurium.
Assay [4] concerns Escherichia coli UB1005.
The test system of assay [5] is Pseudomonas aeruginosa M1426.
Assay [6] deals with Pseudomonas aeruginosa M1251.
Assay [7] deals with Pseudomonas aeruginosa M76.
The test system of assay [8] is Pseudomonas aeruginosa M917.
Assay [9] deals with Achromobacter xylosoxidans.
Assay [10] deals with Pseudomonas aeruginosa ATCC 9027.
Assay [11] deals with Stenotrophomonas maltophilia.
In assay [12] the test system is Staphylococcus aureus ATCC 6538.
Assay [13] deals with Staphylococcus aureus.
For assay [14], the system named is Ralstonia pickettii.
The subject of assay [15] is Pseudomonas aeruginosa PAO1.
Assay [16] relates to Pseudomonas aeruginosa R70.
Assay [17] relates to Salmonella enterica serovar Typhimurium.
Assay [18] concerns Candida albicans.
For assay [19], the system named is Pseudomonas fluorescens.
Assay [20] has as its system Salmonella typhimurium C587.
Assay [21] deals with Salmonella typhimurium C610.
The subject of assay [22] is Bacillus subtilis C971.
Assay [23] relates to Enterococcus faecalis C625.
The test system of assay [24] is Corynebacterium xerosis C875.
The test system of assay [25] is Staphylococcus aureus ATCC 25923.
For assay [26], the system named is Staphylococcus aureus SAP 0017.
For assay [27], the system named is Pseudomonas aeruginosa H187.
Assay [28] has as its system Pseudomonas aeruginosa H188.
Assay [29] has as its system Escherichia coli DC2.
The subject of assay [30] is Staphylococcus epidermidis C621.
Assay [31] deals with Bacillus subtilis KCCM 11495.
Assay [32] deals with Escherichia coli KCCM 11569.

Each structure is given as a SMILES string. Values after ≈ are worked out from the molar mass of the structure shown.

Take `CC[C@H](C)[C@H](NC(=O)[C@H](C)N)C(=O)N[C@@H](Cc1cnc[nH]1)C(=O)N[C@@H](CCCCN)C(=O)N[C@@H](CC(C)C)C(=O)N[C@@H](C)C(=O)N[C@@H](Cc1cnc[nH]1)C(=O)N[C@@H](CCCCN)C(=O)N[C@@H](CC(C)C)C(=O)N[C@@H](CC(C)C)C(=O)N1CCC[C@H]1C(=O)N[C@@H](CCCCN)C(=O)N[C@H](C(=O)N[C@@H](CC(C)C)C(=O)N[C@@H](CCCN=C(N)N)C(=O)N[C@@H](C)C(=O)N[C@H](C(=O)N[C@@H](CCCCN)C(=O)N[C@@H](CCCCN)C(=O)N[C@@H](CC(C)C)C(=O)N[C@@H](C)C(=O)N[C@@H](CC(N)=O)C(=O)O)C(C)C)[C@@H](C)O` [AIHKLAHKLLPKTLRAVKKLAN]: the MIC is 25 µM (≈ 61.6 µg/mL) in assay [1], 20.5 µM (≈ 50.5 µg/mL) in assay [2], 15.5 µM (≈ 38.2 µg/mL) in [3] and 20.5 µM (≈ 50.5 µg/mL) in assay [4].
With `CC[C@H](C)[C@H](NC(=O)[C@H](C)N)C(=O)N[C@@H](Cc1cnc[nH]1)C(=O)N[C@@H](CCCCN)C(=O)N[C@@H](CC(C)C)C(=O)N[C@@H](C)C(=O)N[C@@H](Cc1cnc[nH]1)C(=O)N[C@@H](CCCCN)C(=O)N[C@H](C(=O)N[C@@H](CC(C)C)C(=O)N[C@@H](CCCCN)C(=O)N[C@@H](CCCCN)C(=O)N[C@H](C(=O)N[C@@H](CC(C)C)C(=O)N[C@@H](CCCN=C(N)N)C(=O)N[C@@H](C)C(=O)N[C@H](C(=O)N[C@@H](CCCCN)C(=O)N[C@@H](CCCCN)C(=O)N[C@@H](CC(C)C)C(=O)N[C@@H](C)C(=O)N[C@@H](CC(N)=O)C(=O)O)C(C)C)[C@@H](C)O)[C@@H](C)O` [AIHKLAHKTLKKTLRAVKKLAN], the MIC in [1] amounted to 14.5 µM (≈ 36 µg/mL); in [2], 12.5 µM (≈ 31 µg/mL); in assay [3] it was 10.5 µM (≈ 26.1 µg/mL); in assay [4], 15.5 µM (≈ 38.5 µg/mL).
As for `CC(C)C[C@H](NC(=O)[C@H](CCCCN)NC(=O)[C@H](CCCCN)NC(=O)[C@H](C)NC(=O)[C@H](CC(C)C)NC(=O)[C@H](CCCCN)NC(=O)[C@H](CCCCN)NC(=O)[C@H](CC(C)C)NC(=O)[C@H](CCCCN)NC(=O)[C@H](CCCCN)NC(=O)[C@H](C)NC(=O)[C@H](CC(C)C)NC(=O)[C@H](CCCCN)NC(=O)[C@H](CCCCN)NC(=O)[C@H](C)NC(=O)[C@@H](N)Cc1ccccc1)C(=O)N[C@@H](C)C(=O)N[C@@H](CCCCN)C(=O)O` [FAKKLAKKLKKLAKKLAK], the MIC in assay [5] stood at 3.89 µM (≈ 8 µg/mL); in [6], 3.89 µM (≈ 8 µg/mL); in [7], 3.89 µM (≈ 8 µg/mL); in [8] it was 15.6 µM (≈ 32 µg/mL); in [9], 3.89 µM (≈ 8 µg/mL); in [10], 7.3 µM (≈ 15 µg/mL). Also, the minimum inhibitory concentration (MIC) in assay [11] was 0.486 µM (≈ 1 µg/mL); in assay [2], 7.78 µM (≈ 16 µg/mL); in assay [12], 7.3 µM (≈ 15 µg/mL); in assay [13] it was greater than 62.3 µM; in assay [14] it was 1.95 µM (≈ 4 µg/mL); in assay [15], 3.89 µM (≈ 8 µg/mL). In addition, the MIC in assay [16] was determined as 0.973 µM (≈ 2 µg/mL); in assay [17], 3.89 µM (≈ 8 µg/mL); in assay [18], 15.6 µM (≈ 32 µg/mL); in assay [4], 0.973 µM (≈ 2 µg/mL); in [19] it was 3.89 µM (≈ 8 µg/mL).
`CC(C)C[C@H](NC(=O)[C@H](C)NC(=O)[C@H](CCCCN)NC(=O)[C@H](CCCCN)NC(=O)[C@H](CC(C)C)NC(=O)[C@H](C)NC(=O)[C@H](CCCCN)NC(=O)[C@H](CCCCN)NC(=O)[C@H](CC(C)C)NC(=O)[C@H](CCCCN)NC(=O)[C@H](CCCCN)NC(=O)[C@H](CC(C)C)NC(=O)[C@H](C)NC(=O)[C@H](CCCCN)NC(=O)[C@H](CC(C)C)NC(=O)[C@H](C)NC(=O)[C@@H](N)Cc1ccccc1)C(N)=O` [FALKALKKLKKALKKAL]: the MIC was 8.37 µM (≈ 16 µg/mL) in [5]; 4.18 µM (≈ 8 µg/mL) in assay [6]; 8.37 µM (≈ 16 µg/mL) in [7]; 8.37 µM (≈ 16 µg/mL) in assay [8]; no less than 66.9 µM in assay [9]; 2.09 µM (≈ 4 µg/mL) in assay [11]. In addition, the MIC stood at 4.18 µM (≈ 8 µg/mL) in [2]; 4.18 µM (≈ 8 µg/mL) in [13]; 2.09 µM (≈ 4 µg/mL) in assay [14]; 4.18 µM (≈ 8 µg/mL) in assay [15]; 2.09 µM (≈ 4 µg/mL) in assay [16]; 4.18 µM (≈ 8 µg/mL) in assay [17]. In addition, the MIC in assay [18] was determined as 8.37 µM (≈ 16 µg/mL); in assay [4], 2.09 µM (≈ 4 µg/mL); in [19], 2.09 µM (≈ 4 µg/mL).
As for `CC[C@H](C)[C@H](NC(=O)[C@H](C)NC(=O)[C@H](CCCCN)NC(=O)[C@H](CC(C)C)NC(=O)[C@H](C)NC(=O)[C@@H](NC(=O)[C@H](Cc1cnc[nH]1)NC(=O)[C@H](CC(C)C)NC(=O)[C@@H](NC(=O)[C@@H](NC(=O)[C@H](CCCCN)NC(=O)CNC(=O)[C@H](C)NC(=O)[C@H](CO)NC(=O)[C@H](CCCCN)NC(=O)[C@H](Cc1ccccc1)NC(=O)[C@@H](NC(=O)[C@H](CCCCN)NC(=O)[C@H](CC(C)C)NC(=O)[C@H](Cc1ccccc1)NC(=O)[C@H](CO)NC(=O)[C@H](CCCCN)NC(=O)[C@H](Cc1c[nH]c2ccccc12)NC(=O)[C@H](CCCCN)NC(C)=O)[C@@H](C)O)[C@@H](C)O)C(C)C)[C@@H](C)O)C(=O)N[C@@H](CO)C(=O)N[C@@H](CO)C(N)=O` [KWKSFLKTFKSAGKTVLHTALKAISS], the MIC is 1.74 µM (≈ 5.07 µg/mL) in assay [20]; 0.869 µM (≈ 2.54 µg/mL) in [21]; 0.695 µM (≈ 2.03 µg/mL) in assay [22]; 17.6 µM (≈ 51.5 µg/mL) in assay [23]; 0.695 µM (≈ 2.03 µg/mL) in assay [24]; 8.82 µM (≈ 25.8 µg/mL) in assay [25]. In addition, the MIC in assay [26] was 3.51 µM (≈ 10.2 µg/mL); in assay [27], 2.22 µM (≈ 6.49 µg/mL); in [4], 0.869 µM (≈ 2.54 µg/mL); in assay [28], 3.51 µM (≈ 10.2 µg/mL); in [29], 0.869 µM (≈ 2.54 µg/mL); in assay [30], 1.11 µM (≈ 3.25 µg/mL).
Take `CC[C@H](C)[C@H](NC(=O)[C@H](C)NC(=O)[C@H](CCCCN)NC(=O)[C@H](CC(C)C)NC(=O)[C@H](C)NC(=O)[C@@H](NC(=O)[C@H](Cc1cnc[nH]1)NC(=O)[C@H](CC(C)C)NC(=O)[C@@H](NC(=O)[C@@H](NC(=O)[C@H](CCCCN)NC(=O)[C@@H](NC(=O)[C@H](C)NC(=O)[C@@H](NC(=O)[C@H](CCCCN)NC(=O)[C@H](Cc1ccccc1)NC(=O)[C@@H](NC(=O)[C@H](CCCCN)NC(=O)[C@H](CC(C)C)NC(=O)[C@H](Cc1ccccc1)NC(=O)[C@H](CO)NC(=O)[C@H](CCCCN)NC(=O)[C@H](Cc1c[nH]c2ccccc12)NC(=O)[C@H](CCCCN)NC(C)=O)[C@@H](C)O)C(C)C)C(C)C)[C@@H](C)O)C(C)C)[C@@H](C)O)C(=O)N[C@@H](CO)C(=O)N[C@@H](CO)C(N)=O` [KWKSFLKTFKVAVKTVLHTALKAISS]: the MIC in assay [20] stood at 10.9 µM (≈ 32.4 µg/mL); in assay [21] it was 1.71 µM (≈ 5.07 µg/mL); in assay [22], 0.853 µM (≈ 2.54 µg/mL); in assay [23], 6.89 µM (≈ 20.5 µg/mL); in assay [24], 0.443 µM (≈ 1.32 µg/mL); in assay [25], 5.46 µM (≈ 16.2 µg/mL). Besides, the minimum inhibitory concentration (MIC) was 4.33 µM (≈ 12.9 µg/mL) in assay [26]; 3.44 µM (≈ 10.2 µg/mL) in assay [27]; 2.18 µM (≈ 6.49 µg/mL) in assay [4]; 6.89 µM (≈ 20.5 µg/mL) in assay [28]; 1.36 µM (≈ 4.06 µg/mL) in [29]; 2.73 µM (≈ 8.11 µg/mL) in [30].
For the compound `CC(C)C[C@H](NC(=O)CNC(=O)[C@H](Cc1cnc[nH]1)NC(=O)[C@H](Cc1cnc[nH]1)NC(=O)[C@H](CC(C)C)NC(=O)[C@H](CC(C)C)NC(=O)[C@H](C)NC(=O)[C@H](CC(N)=O)NC(=O)[C@H](CC(C)C)NC(=O)[C@@H](N)Cc1c[nH]c2ccccc12)C(=O)N[C@@H](CC(N)=O)C(=O)N[C@@H](CS)C(=O)N[C@@H](C)C(N)=O` [WLNALLHHGLNCA], the MIC in assay [31] and in assay [32] was no less than 43.8 µM in each case.

Broadly, the MIC is the lowest concentration found to suppress growth. A lower MIC goes with greater potency.
